Source: ChEMBL document CHEMBL1201862, “PubChem BioAssay data set” (2004)
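Five compound concentrations were applied to cells in 96-well plates for 48 hours; endpoints were derived by simple linear interpolation of the resulting dose-response curve. Here, GI50 denotes the concentration required for 50% inhibition of growth.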 Calls of active or inactive are those of the source. Rule as the data show it: active = GI50 up to about 1.1 µM and inactive = higher.

Experiments:
Assay in all cases: DTP human tumour cell line panel, 48 h
A498 = system: A498
A549 = system: A549
CAKI-1 = system: CAKI-1
COLO 205 = system: COLO 205
HCT-15 = system: HCT-15
IGROV-1 = system: IGROV-1
M14 = system: M14
NCI-H226 = system: NCI-H226
NCI-H522 = system: NCI-H522
OVCAR-4 = system: OVCAR-4
SF-268 = system: SF-268
SF-539 = system: SF-539
SK-MEL-2 = system: SK-MEL-2
SK-MEL-5 = system: SK-MEL-5
HOP-62 = system: HOP-62
SR = system: SR

| SMILES | GI50 (A498) | GI50 (A549) | GI50 (CAKI-1) | GI50 (COLO 205) | GI50 (HCT-15) [µM] | GI50 (IGROV-1) | GI50 (M14) | GI50 (NCI-H226) | GI50 (NCI-H522) | GI50 (OVCAR-4) | GI50 (SF-268) | GI50 (SF-539) | GI50 (SK-MEL-2) | GI50 (SK-MEL-5) | GI50 (HOP-62) | GI50 (SR) |
| --- | --- | --- | --- | --- | --- | --- | --- | --- | --- | --- | --- | --- | --- | --- | --- | --- |
| CCOC(=O)c1c2ccc(/C=C/c3ccccn3)ccc-2c(C(=O)OCC)c1N | 24.8 µM (inactive) | > 100 µM (inactive) | > 100 µM (inactive) | > 100 µM (inactive) | > 100 | > 100 µM (inactive) | > 100 µM (inactive) | > 100 µM (inactive) | 91 µM (inactive) | 37.6 µM (inactive) | 0.091 µM (active) | 88.9 µM (inactive) | > 100 µM (inactive) | > 100 µM (inactive) |  |  |
| CC[P+](C)(C)c1ccccc1 | > 100 µM (inactive) | > 100 µM (inactive) | > 100 µM (inactive) | > 100 µM (inactive) | > 100 | > 100 µM (inactive) | > 100 µM (inactive) |  |  | 99.3 µM (inactive) | > 100 µM (inactive) | > 100 µM (inactive) | > 100 µM (inactive) | > 100 µM (inactive) | > 100 µM (inactive) |  |
| OCc1c(-c2cccc3ccccc23)sc(-c2cccc3ccccc23)c1CO |  |  |  | 11.6 µM (inactive) | 14.7 | 14.1 µM (inactive) | 14.5 µM (inactive) | 16.7 µM (inactive) | 10.5 µM (inactive) |  | 13.2 µM (inactive) | 15.3 µM (inactive) | 14.6 µM (inactive) | 11.3 µM (inactive) | 13 µM (inactive) | 13.5 µM (inactive) |
| NC(=S)N/N=C/C(O[C@@H](/C=N/NC(N)=S)CO)n1cnc2c(N)ncnc21 (some centres not stated) | > 100 µM (inactive) | > 65.3 µM (inactive) | > 100 µM (inactive) | > 49.8 µM (inactive) | > 42.3 | > 56.2 µM (inactive) | > 100 µM (inactive) | > 100 µM (inactive) | > 47.9 µM (inactive) | > 100 µM (inactive) | > 85.5 µM (inactive) | > 100 µM (inactive) |  | 44.6 µM (inactive) | > 100 µM (inactive) | > 100 µM (inactive) |
| CC(C)(Oc1ccc2c(=O)cc(-c3ccc(Cl)cc3)oc2c1)C(=O)Nc1c(Cl)cccc1Cl | > 100 µM (inactive) | > 100 µM (inactive) | > 100 µM (inactive) |  | 24.2 | > 100 µM (inactive) | > 100 µM (inactive) |  | > 100 µM (inactive) |  | > 100 µM (inactive) | > 100 µM (inactive) | > 100 µM (inactive) | 96.6 µM (inactive) | > 100 µM (inactive) | 79.3 µM (inactive) |
| CCC12CCCN(Cc3ccccc3)C1c1c(n(C)c3ccccc13)CC2 (configuration not stated) |  | > 25.3 µM (inactive) | > 253 µM (inactive) | 164 µM (inactive) | 185 | 159 µM (inactive) |  | > 253 µM (inactive) | 61.1 µM (inactive) |  | 199 µM (inactive) | > 253 µM (inactive) | > 253 µM (inactive) | 69.3 µM (inactive) | > 253 µM (inactive) | 108 µM (inactive) |
| CN(C)C(=S)N=C(Nc1ccccc1)Nc1ccccc1 | > 100 µM (inactive) | > 100 µM (inactive) | > 100 µM (inactive) | > 100 µM (inactive) | > 100 | > 100 µM (inactive) | > 100 µM (inactive) | > 100 µM (inactive) | > 100 µM (inactive) | > 100 µM (inactive) | > 100 µM (inactive) | > 100 µM (inactive) | > 100 µM (inactive) | > 100 µM (inactive) | > 100 µM (inactive) | > 100 µM (inactive) |
| C/C(CC(=O)Nc1ccccc1[N+](=O)[O-])=N\NC(N)=O |  | > 100 µM (inactive) |  | > 100 µM (inactive) |  | > 100 µM (inactive) | > 100 µM (inactive) | > 100 µM (inactive) | > 100 µM (inactive) |  | > 100 µM (inactive) | > 100 µM (inactive) | > 100 µM (inactive) | > 100 µM (inactive) | > 100 µM (inactive) |  |
| CCOc1ccccc1NC(=O)C(=O)CC(=O)C1=C(C)Nc2ccccc2S1 | > 100 µM (inactive) | > 100 µM (inactive) | > 100 µM (inactive) | > 100 µM (inactive) | > 100 | > 100 µM (inactive) | > 100 µM (inactive) | > 100 µM (inactive) | > 100 µM (inactive) | > 100 µM (inactive) | > 100 µM (inactive) | > 100 µM (inactive) | > 100 µM (inactive) | > 100 µM (inactive) | > 100 µM (inactive) |  |
| CC(C)OC(=O)C1=C(O)c2ccccc2S(=O)(=O)N1 | > 100 µM (inactive) | > 100 µM (inactive) | > 100 µM (inactive) | > 100 µM (inactive) | > 100 | > 100 µM (inactive) | > 100 µM (inactive) | > 100 µM (inactive) | > 100 µM (inactive) | > 100 µM (inactive) | > 100 µM (inactive) | > 100 µM (inactive) | > 100 µM (inactive) | > 100 µM (inactive) | > 100 µM (inactive) |  |
